Laboratory results reported in patent publication US12312370B2, “Immunoproteasome inhibitors” (Principia Biopharma Inc., priority 2017, dated 2025).
Where two headings read alike, the source gives them in different places.

Legend:
[1] = molecular target: immunoproteasome LMP7/B5i subunit (Homo sapiens, UniProt P28062); assay: Caliper-based proteasome enzymatic activity assay, LMP7; assay type: biochemical
[2] = molecular target: constitutive proteasome β5c unit (Homo sapiens, UniProt P28074); assay: Caliper-based proteasome enzymatic activity assay, β5c; assay type: biochemical; conditions: human recombinant constitutive proteasome 0.3 nM, FAM-labeled peptide substrate 1 μM, rt 3 h; read-out: β5c subunit IC50
[3] = human recombinant immunoproteasome 0.3 nM, FAM-labeled peptide substrate 1 μM, rt 3 h, read-out: LMP7 subunit IC50

SMILES | IC50 [1, 3] [nM] | IC50 [2] [nM] | IC50 [1] [nM]
C=CC(=O)N1CC[C@H]1COC(=O)N[C@@H](Cc1ccccc1)B(O)O [Example 51, ((R)-1-(((((S)-1-acryloylazetidin-2-yl)methoxy)carbonyl)amino)-2-phenylethyl)boronic acid] | 256 | 1430 | –
Cc1ccc(C[C@H](NC(=O)OC[C@H]2CCCN(C(=O)C(C#N)=CC(C)(C)N3CCC(F)(F)C3)C2)B(O)O)cc1 [Example 52, ((R)-1-(((((S)-1-(2-cyano-4-(3,3-difluoropyrrolidin-1-yl)-4-methylpent-2-enoyl)piperidin-3-yl)methoxy)carbonyl)amino)-2-(p-tolyl)ethyl)boronic acid] | 1.7 | 715 | –
CC(C)(C=C(C#N)C(=O)N1CCC[C@H](COC(=O)N[C@@H](Cc2ccccc2)B(O)O)C1)N1CCC(F)(F)C1 [Example 53, ((R)-1-(((((S)-1-(2-cyano-4-(3,3-difluoropyrrolidin-1-yl)-4-methylpent-2-enoyl)piperidin-3-yl)methoxy)carbonyl)amino)-2-phenylethyl)boronic acid] | 4.4 | > 5000 | –
CC(C)(C=C(C#N)C(=O)N1CC[C@@H]1COC(=O)N[C@@H](Cc1ccccc1)B(O)O)N1CCC(F)(F)C1 [Example 54, ((R)-1-(((((R)-1-(2-cyano-4-(3,3-difluoropyrrolidin-1-yl)-4-methylpent-2-enoyl)azetidin-2-yl)methoxy)carbonyl)amino)-2-phenylethyl)boronic acid] | 2.7 | 504 | –
CC(C)(C=C(C#N)C(=O)N1CCC[C@@H](OC(=O)N[C@@H](Cc2ccccc2)B(O)O)C1)N1CCC(F)(F)C1 [Example 55, ((R)-1-(((((R)-1-(2-cyano-4-(3,3-difluoropyrrolidin-1-yl)-4-methylpent-2-enoyl)piperidin-3-yl)oxy)carbonyl)amino)-2-phenylethyl)boronic acid] | 5.1 | 3880 | –
CC(C)(C=C(C#N)C(=O)N1CCC[C@H](CC(=O)N[C@@H](Cc2ccccc2)B(O)O)C1)N1CCC(F)(F)C1 [Example 56, ((R)-1-(2-((R)-1-(2-cyano-4-(3,3-difluoropyrrolidin-1-yl)-4-methylpent-2-enoyl)piperidin-3-yl)acetamido)-2-phenylethyl)boronic acid] | 9.9 | 255 | –
CC(C)(C=C(C#N)C(=O)N1CCO[C@H](CC(=O)N[C@@H](Cc2ccccc2)B(O)O)C1)N1CCC(F)(F)C1 [Example 58, ((R)-1-(2-((R)—4-(2-cyano-4-(3,3-difluoropyrrolidin-1-yl)-4-methylpent-2-enoyl)morpholin-2-yl)acetamido)-2-phenylethyl)boronic acid] | 10 | 139 | –
CC(C)(C=C(C#N)C(=O)N1CCC[C@@H](CC(=O)N[C@@H](Cc2ccccc2)B(O)O)C1)N1CCC(F)(F)C1 [Example 59, ((R)-1-(2-((S)-1-(2-cyano-4-(3,3-difluoropyrrolidin-1-yl)-4-methylpent-2-enoyl)piperidin-3-yl)acetamido)-2-phenylethyl)boronic acid] | 21 | 163 | –
CC(C)(C=C(C#N)C(=O)N1CCC[C@H](OC(=O)N[C@@H](Cc2ccccc2)B(O)O)C1)N1CCC(F)(F)C1 [Example 60, ((R)-1-(((((S)-1-(2-cyano-4-(3,3-difluoropyrrolidin-1-yl)-4-methylpent-2-enoyl)piperidin-3-yl)oxy)carbonyl)amino)-2-phenylethyl)boronic acid] | 1.4 | 463 | –
CC(C)(C=C(C#N)C(=O)N1CCO[C@@H](CC(=O)N[C@@H](Cc2ccccc2)B(O)O)C1)N1CCC(F)(F)C1 [Example 61, ((R)-1-(2-((S)-4-(2-cyano-4-(3,3-difluoropyrrolidin-1-yl)-4-methylpent-2-enoyl)morpholin-2-yl)acetamido)-2-phenylethyl)boronic acid] | 11 | 186 | –
C=CC(=O)N1CC[C@@H]1COC(=O)N[C@@H](Cc1coc2ccccc12)B(O)O [Example 62, ((R)-1-(((((R)-1-acryloylazetidin-2-yl)methoxy)carbonyl)amino)-2-(benzofuran-3-yl)ethyl)boronic acid] | 2.3 | 126 | –
C=CC(=O)N1C2CCC1(COC(=O)N[C@@H](Cc1coc3ccccc13)B(O)O)CC2 [Example 63, (R)-(1-((((7-acryloyl-7-azabicyclo[2.2.1]heptan-1-yl)methoxy)carbonyl)amino)-2-(benzofuran-3-yl)ethyl)boronic acid] | 2 | 465 | –
CN(C[C@H]1CCCCN1C(=O)C(C#N)=CC(C)(C)N1CCC(F)(F)C1)C(=O)N[C@@H](Cc1ccccc1)B(O)O [Example 64] | > 5000 | > 5000 | –
C=CC(=O)N1CCC[C@H](OC(=O)N[C@@H](Cc2coc3ccccc23)B(O)O)C1 [Example 65, ((R)-1-(((((S)-1-acryloylpiperidin-3-yl)oxy)carbonyl)amino)-2-(benzofuran-3-yl)ethyl)boronic acid] | 7.5 | 418 | –
C=CC(=O)N1CCC[C@H](OC(=O)N[C@@H](Cc2ccc(C(F)(F)F)cc2)B(O)O)C1 [Example 66, ((R)-1-(((((S)-1-acryloylpiperidin-3-yl)oxy)carbonyl)amino)-2-(4-(trifluoromethyl)phenyl)ethyl)boronic acid] | 148 | > 5000 | –
C=CC(=O)N1CCC[C@H](OC(=O)N[C@@H](Cc2ccccc2)B(O)O)C1 [Example 67, ((R)-1-(((((S)-1-acryloylpiperidin-3-yl)oxy)carbonyl)amino)-2-phenylethyl)boronic acid] | 249 | > 5000 | –
CC1(C)CCN(C(C)(C)C=C(C#N)C(=O)N2CCC[C@H](OC(=O)N[C@@H](Cc3coc4ccccc34)B(O)O)C2)C1 [Example 68, ((R)-2-(benzofuran-3-yl)-1-(((((S)-1-(2-cyano-4-(3,3-dimethylpyrrolidin-1-yl)-4-methylpent-2-enoyl)piperidin-3-yl)oxy)carbonyl)amino)ethyl)boronic acid] | 31.8 | 1240 | –
CC1(C)CCN(C(C)(C)C=C(C#N)C(=O)N2CCC[C@H](OC(=O)N[C@@H](Cc3ccc(C(F)(F)F)cc3)B(O)O)C2)C1 [Example 69, ((R)-1-(((((S)-1-(2-cyano-4-(3,3-dimethylpyrrolidin-1-yl)-4-methylpent-2-enoyl)piperidin-3-yl)oxy)carbonyl)amino)-2-(4-(trifluoromethyl)phenyl)ethyl)boronic acid] | 26.1 | 3370 | –
C=CC(=O)N1CCC[C@H](OC(=O)N[C@@H](Cc2ccc(F)cc2)B(O)O)C1 [Example 70, ((R)-1-(((((S)-1-acryloylpiperidin-3-yl)oxy)carbonyl)amino)-2-(4-fluorophenyl)ethyl)boronic acid] | – | > 5000 | 106
C=CC(=O)N1C2CCC1(COC(=O)N[C@@H](CCc1ccccc1)B(O)O)CC2 [Example 71, (R)-(1-((((7-acryloyl-7-azabicyclo[2.2.1]heptan-1-yl)methoxy)carbonyl)amino)-3-phenylpropyl)boronic acid] | 528 | > 5000 | –
CC1(C)CCN(C(C)(C)C=C(C#N)C(=O)N2CCC[C@H](OC(=O)N[C@@H](Cc3ccc(F)cc3)B(O)O)C2)C1 [Example 72, ((R)-1-(((((S)-1-(2-cyano-4-(3,3-dimethylpyrrolidin-1-yl)-4-methylpent-2-enoyl)piperidin-3-yl)oxy)carbonyl)amino)-2-(4-fluorophenyl)ethyl)boronic acid] | 5.4 | 851 | –
C=C(F)C(=O)N1CCC[C@H](OC(=O)N[C@@H](Cc2ccc(F)cc2)B(O)O)C1 [Example 74, ((R)-1-(((((S)-1-(2-fluoroacryloyl)piperidin-3-yl)oxy)carbonyl)amino)-2-(4-fluorophenyl)ethyl)boronic acid] | 149 | 2100 | –
C=C(F)C(=O)N1C2CCC1(COC(=O)N[C@@H](Cc1ccc(F)cc1)B(O)O)CC2 [Example 75, (R)-(1-((((7-(2-fluoroacryloyl)-7-azabicyclo[2.2.1]heptan-1-yl)methoxy)carbonyl)amino)-2-(4-fluorophenyl)ethyl)boronic acid] | 129 | > 5000 | –
C=CC(=O)N1C2CCC1(COC(=O)N[C@@H](Cc1ccc(F)cc1)B(O)O)CC2 [Example 76, (R)-(1-((((7-acryloyl-7-azabicyclo[2.2.1]heptan-1-yl)methoxy)carbonyl)amino)-2-(4-fluorophenyl)ethyl)boronic acid] | 21.1 | 4030 | –
CC(C)(C=C(C#N)C(=O)N1C2CCC1(COC(=O)N[C@@H](CCc1ccccc1)B(O)O)CC2)N1CCC(F)(F)C1 [Example 77, (R)-(1-((((7-(2-cyano-4-(3,3-difluoropyrrolidin-1-yl)-4-methylpent-2-enoyl)-7-azabicyclo[2.2.1]heptan-1-yl)methoxy)carbonyl)amino)-3-phenylpropyl)boronic acid] | 0.9 | 3280 | –
CC(C)(C=C(C#N)C(=O)N1CCC[C@H](OC(=O)N[C@@H](Cc2ccccc2)B(O)O)C1)N1CCN(C2COC2)CC1 [Example 79] | 5.3 | 2780 | –
CN1CCN(C(C)(C)C=C(C#N)C(=O)N2CCC[C@H](OC(=O)N[C@@H](Cc3ccccc3)B(O)O)C2)CC1 [Example 80, ((R)-1-(((((S)-1-(2-cyano-4-methyl-4-(4-methylpiperazin-1-yl)pent-2-enoyl)piperidin-3-yl)oxy)carbonyl)amino)-2-phenylethyl)boronic acid] | 3.9 | 1380 | –
CC(C)(C=C(C#N)C(=O)N1C2CCC1(COC(=O)N[C@@H](Cc1ccccc1)B(O)O)CC2)N1CCOCC1 [Example 81] | 1.8 | 2220 | –
CC(C)(C=C(C#N)C(=O)N1C2CCC1(COC(=O)N[C@@H](Cc1ccc(F)cc1)B(O)O)CC2)N1CCOCC1 [Example 82, (R)-(1-((((7-(2-cyano-4-methyl-4-morpholinopent-2-enoyl)-7-azabicyclo[2.2.1]heptan-1-yl)methoxy)carbonyl)amino)-2-(4-fluorophenyl)ethyl)boronic acid] | 1.7 | 1380 | –
